Data reported in PMC7343746, “(2S, 4R)-4-[^18F]Fluoroglutamine for In vivo PET Imaging of Glioma Xenografts in Mice: an Evaluation of Multiple Pharmacokinetic Models” (Molecular Imaging and Biology, 2020).
Values joined by “and” are separate entries in the source; they are usually repeats but may differ in a detail not shown here. Identical values can stand only once.

Legend:
[1] = tested on: patient-derived BT3 glioma cells; assay: In vivo PET imaging of orthotopic glioma xenografts; design: species or system BALB/cOlaHsd-Foxn1^nu mouse; conditions: for PET TBRmean: orthotopic glioma
Excerpt: The intracranial glioma model was made by injecting female BALB/cOlaHsd-Foxn1^nu (athymic nude, Institute of Animal Genetics, Edinburgh, UK) mice with patient-derived BT3 glioma cells labeled with luciferase into the frontal right hemisphere of the brain at 9 weeks old. Tumors were monitored for growth via in vivo bioluminescence detection and subjects PET imaged after 12 days.
One to two mice were imaged at a time while under 2 % isoflurane anesthesia with an Inveon multimodality small animal PET/CT scanner (Siemens Medical Solutions, Munich, Germany) commencing with an attenuation CT scan to correct the PET scan data. Ten to twelve megabequerels of the tracer was injected into the tail vein, and the subject(s) were imaged over a 60-min period in list mode dividing framing into 6 × 10 s, 4 × 60 s, 5 × 300 s, 3 × 600 s. Obtained sinograms were reconstructed using the ordered-subset expectation maximization 2-dimensional algorithm to obtain the final PET images and back-corrected for radionuclide decay.
Image analysis was performed using CARIMAS software published and freely distributed by the Turku PET Center (http://turkupetcentre.fi/carimas/). CT scans were used as rough anatomical reference while tumor regions of interest (ROI) were hand-drawn based upon observed spikes of radioactivity in the PET images at locations correlating with recorded tumor grafts. Control muscle ROIs were drawn on the side opposite to the tumor in the leg flank muscle (based on CT) while the blood ROI was drawn based upon heart anatomical location and observed PET image radioactivity spike during the initial 20 s of imaging in the left ventricle. […] Mean and maximum TBR values were reported as ROI radioactivity per volume divided by mean background radioactivity per volume. The blood radioactivity SUV and gender-specific metabolite-corrected blood radioactivity SUV were then applied to multiple pharmacokinetic models to characterize the flux of the tracer (further described in the “Modeling” section).

[2] = tested on: rat BT4C glioma cells; assay: Patlak plot (irreversible uptake model), subcutaneous model; format: in vivo, Foxn1^nu/nu mouse; conditions: for Patlak Ic (AB) y intercept: AB input; for Patlak Ic (PC) y intercept: PC input
Method: (§1) Image analysis was performed using CARIMAS software published and freely distributed by the Turku PET Center (http://turkupetcentre.fi/carimas/). CT scans were used as rough anatomical reference while tumor regions of interest (ROI) were hand-drawn based upon observed spikes of radioactivity in the PET images at locations correlating with recorded tumor grafts. Control muscle ROIs were drawn on the side opposite to the tumor in the leg flank muscle (based on CT) while the blood ROI was drawn based upon heart anatomical location and observed PET image radioactivity spike during the initial 20 s of imaging in the left ventricle. Standardized uptake values (SUV) were calculated with respect to ROI volume, mean and max tumor radioactivity, total injected radioactivity dose (corrected for tail, cannula, and syringe residual radioactivity), and animal weight, and were additionally presented as tumor-to-background ratio (TBR, tumor-to-healthy brain region for intracranial gliomas and tumor-to-muscle for subcutaneous gliomas) as defined by recent glioma research literature standards. Mean and maximum TBR values were reported as ROI radioactivity per volume divided by mean background radioactivity per volume. The blood radioactivity SUV and gender-specific metabolite-corrected blood radioactivity SUV were then applied to multiple pharmacokinetic models to characterize the flux of the tracer (further described in the “Modeling” section).
(§2) Using the heart’s left ventricle ROI from the PET data as an uncorrected radioactivity level input and the bioavailable parent-tracer fraction (results: Eqs. 3 and 4 applied to the uncorrected input) as the corrected input, multiple models were investigated to characterize the tissue uptake dynamics. Two-compartment modeling and Logan, Patlak, and Yokoi plots were used to separately model the pharmacokinetics for the gliomas (both subcutaneous and orthotopic loci) and their respective control tissues (healthy muscle and healthy brain, respectively). Where indicated, means plus/minus standard deviations are reported. Difference in parameters for uncorrected versus correct and target tissue versus their respective control regions were tested with students’ paired t tests with P values lower than 0.05 being considered significant.

[3] = tested on: rat BT4C glioma cells; assay: Yokoi plot, subcutaneous model; format: in vivo, Foxn1^nu/nu mouse; conditions: for Yokoi K1 (AB) plasma to tissue transport rate / Yokoi K1/k2 (AB) binding potential / Yokoi k2 (AB) tissue to plasma transport rate: AB input; for Yokoi K1 (PC) plasma to tissue transport rate / Yokoi K1/k2 (PC) binding potential / Yokoi k2 (PC) tissue to plasma transport rate: PC input
Method: as §1, §2

[4] = tested on: rat BT4C glioma cells; assay: 2-Compartment model, subcutaneous model; format: in vivo, Foxn1^nu/nu mouse; conditions: Bone (femoral condyle) average (n = 6); arterial blood input
Method: as §1, §2

[5] = Bone (femoral condyle) average (n = 6)

NC(=O)[C@H]([18F])C[C@H](N)C(=O)O [[^18F]FGln, (2S, 4R)-4-[^18F]fluoroglutamine]
PET TBRmean ([1]; Subject A): 4.8
PET TBRmean ([1]; Subject B): 3.6
PET image tumor-to-healthy brain region ratio ([1]; orthotopic human glioma xenografts): 3.6 and 4.8
Patlak Ic (AB) y intercept [2, 5]: 0.5752 ± 0.1597
Patlak Ic (PC) y intercept [2, 5]: 0.3705 ± 0.2561
Patlak Ic (AB) y intercept ([2]; Flank muscle average (n = 6)): 0.5790 ± 0.1835
Patlak Ic (PC) y intercept ([2]; Flank muscle average (n = 6)): 0.8154 ± 0.2742
Patlak Ic (AB) y intercept ([2]; Flank tumor average (n = 6)): 1.0521 ± 0.2524
Patlak Ic (PC) y intercept ([2]; Flank tumor average (n = 6)): 1.5318 ± 0.3888
Patlak Ic (AB) y intercept ([2]; Neck tumor average (n = 6)): 1.2083 ± 0.1715
Patlak Ic (PC) y intercept ([2]; Neck tumor average (n = 6)): 1.7708 ± 0.2668
Irreversible uptake rate relative to reversible uptake rates ([2]; Patlak versus reversible models): roughly 15 times lower
Yokoi K1 (AB) plasma to tissue transport rate [3, 5]: 0.075 ± 0.013 mL min-1 mL-1
Yokoi K1/k2 (AB) binding potential [3, 5]: 5.48 ± 2.21 mL mL-1
Yokoi k2 (AB) tissue to plasma transport rate [3, 5]: 0.017 ± 0.012 min⁻¹
Yokoi K1 (PC) plasma to tissue transport rate [3, 5]: 0.086 ± 0.015 mL min-1 mL-1
Yokoi K1/k2 (PC) binding potential [3, 5]: 37.68 ± 39.62 mL mL-1
Yokoi k2 (PC) tissue to plasma transport rate [3, 5]: 0.005 ± 0.006 min⁻¹
Yokoi K1 (AB) plasma to tissue transport rate ([3]; Flank muscle average (n = 6)): 0.057 ± 0.023 mL min-1 mL-1
Yokoi K1/k2 (AB) binding potential ([3]; Flank muscle average (n = 6)): 0.76 ± 0.13 mL mL-1
Yokoi k2 (AB) tissue to plasma transport rate ([3]; Flank muscle average (n = 6)): 0.074 ± 0.028 min⁻¹
Yokoi K1 (PC) plasma to tissue transport rate ([3]; Flank muscle average (n = 6)): 0.054 ± 0.017 mL min-1 mL-1
Yokoi K1/k2 (PC) binding potential ([3]; Flank muscle average (n = 6)): 1.37 ± 0.23 mL mL-1
Yokoi k2 (PC) tissue to plasma transport rate ([3]; Flank muscle average (n = 6)): 0.039 ± 0.013 min⁻¹
Yokoi K1 (AB) plasma to tissue transport rate ([3]; Flank tumor average (n = 6)): 0.121 ± 0.039 mL min-1 mL-1
Yokoi K1/k2 (AB) binding potential ([3]; Flank tumor average (n = 6)): 1.13 ± 0.09 mL mL-1
Yokoi k2 (AB) tissue to plasma transport rate ([3]; Flank tumor average (n = 6)): 0.106 ± 0.029 min⁻¹
Yokoi K1 (PC) plasma to tissue transport rate ([3]; Flank tumor average (n = 6)): 0.105 ± 0.027 mL min-1 mL-1
Yokoi K1/k2 (PC) binding potential ([3]; Flank tumor average (n = 6)): 1.95 ± 0.15 mL mL-1
Yokoi k2 (PC) tissue to plasma transport rate ([3]; Flank tumor average (n = 6)): 0.054 ± 0.011 min⁻¹
Yokoi K1 (AB) plasma to tissue transport rate ([3]; Neck tumor average (n = 6)): 0.179 ± 0.076 mL min-1 mL-1
Yokoi K1/k2 (AB) binding potential ([3]; Neck tumor average (n = 6)): 1.21 ± 0.08 mL mL-1
Yokoi k2 (AB) tissue to plasma transport rate ([3]; Neck tumor average (n = 6)): 0.146 ± 0.056 min⁻¹
Yokoi K1 (PC) plasma to tissue transport rate ([3]; Neck tumor average (n = 6)): 0.135 ± 0.039 mL min-1 mL-1
Yokoi K1/k2 (PC) binding potential ([3]; Neck tumor average (n = 6)): 2.08 ± 0.13 mL mL-1
Yokoi k2 (PC) tissue to plasma transport rate ([3]; Neck tumor average (n = 6)): 0.065 ± 0.016 min⁻¹
2-Compartment K1 [4]: 0.309 ± 0.179 mL min-1 mL-1
2-Compartment K1/k2 [4]: 0.745 ± 0.194 mL mL-1
2-Compartment Vb [4]: 5.45 ± 2.53%
2-Compartment k3 [4]: 0.075 ± 0.034 min⁻¹
2-Compartment k3*K1/k2 [4]: 0.052 ± 0.017
2-Compartment k3/(k2+k3) [4]: 0.171 ± 0.083
